Laboratory results published in patent US8362249B2, “CXCR3 receptor antagonists” (Boehringer Ingelheim International GmbH, priority 2009, dated 2013).

Tested on: LDL receptor knockout model
Test: not given
Conditions: dosed prophylactically; cited from earlier work
In the case of `CCOc1ccc(-n2c(C(C)N(Cc3cccnc3)C(=O)Cc3ccc(F)c(C(F)(F)F)c3)nc3ncccc3c2=O)cc1` (stereo not shown) [NBI-74330], the atherosclerotic lesion formation is given as “significantly attenuated atherosclerotic lesion formation”.

Molecular target: CXCR3 (Macaca fascicularis, UniProt A0A2K5UV19)
Sequence (A0A2K5UV19 entry or part of it): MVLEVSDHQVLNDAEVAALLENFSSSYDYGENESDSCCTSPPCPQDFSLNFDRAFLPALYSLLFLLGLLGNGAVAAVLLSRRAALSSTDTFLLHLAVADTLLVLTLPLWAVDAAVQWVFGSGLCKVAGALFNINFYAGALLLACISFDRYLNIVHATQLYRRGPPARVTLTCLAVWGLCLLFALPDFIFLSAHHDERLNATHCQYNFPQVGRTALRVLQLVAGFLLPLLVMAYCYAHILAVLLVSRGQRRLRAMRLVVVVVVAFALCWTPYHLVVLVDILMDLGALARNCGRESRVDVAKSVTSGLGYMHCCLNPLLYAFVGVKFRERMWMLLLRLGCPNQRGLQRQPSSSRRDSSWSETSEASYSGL
Test: functional cellular assay measuring calcium flux in CXCR3 transfected cells (block of CXCR3/IP-10 interaction)
Assay type: cell-based
Conditions: IP-10 induced intracellular calcium flux; Cyno-CHO cells stably expressing recombinant CXCR3 and G-alpha-16
Outline: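 Cyno-CHO cells stably co-expressing recombinant CXCR3 and G-alpha-16, loaded with Ca-4 dye (HBSS, 10 mM HEPES pH 7.4, 2 mM probenecid) for 1 h at 37 °C. Compound (10 microM final) preincubated 15 min at room temperature, then IP-10 added at EC80. Intracellular calcium flux read by fluorescence (ex 480/em 540 nm).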
Compound `Cc1cc(C)n(CC(=O)N2CCC(c3ccc(Cl)cc3NC(=O)c3ccccc3)CC2)n1` [N-(5-Chloro-2-{1-[2-(3,5-dimethyl-pyrazol-1-yl)-acetyl]-piperidin-4-yl}-phenyl)-benzamide] has an IC50 of 18.5 nM.
With `Cc1cc(C)n(CC(=O)N2CCN(c3ncc(Cl)cc3NC(=O)c3cccc(C(F)(F)F)c3)CC2)n1` [N-(5-Chloro-2-{4-[2-(3,5-dimethyl-pyrazol-1-yl)-acetyl]-piperazin-1-yl}-pyridin-3-yl)-3-trifluoromethyl-benzamide] the IC50 was 10.6 nM.
`Cc1cc(C)n(CC(=O)N2CCN(c3ncc(Cl)cc3NC(=O)c3ccc(S(C)(=O)=O)cc3)CC2)n1` [N-(5-Chloro-2-{4-[2-(3,5-dimethyl-pyrazol-1-yl)-acetyl]-piperazin-1-yl}-pyridin-3-yl)-4-methanesulfonyl-benzamide] showed an IC50 of 23 nM.
`Cc1cc(C)n(CC(=O)N2CCN(c3ccccc3C(=O)Nc3nc4cc(Cl)ccc4s3)CC2)n1` [N-(5-Chloro-benzothiazol-2-yl)-2-{4-[2-(3,5-dimethyl-pyrazol-1-yl)-acetyl]-piperazin-1-yl}-benzamide] showed an IC50 of 17 nM.
Compound `Cc1cc(C)n(CC(=O)N2CCN(c3ccccc3C(=O)Nc3cncc(Cl)c3)CC2)n1` [N-(5-Chloro-pyridin-3-yl)-2-{4-[2-(3,5-dimethyl-pyrazol-1-yl)-acetyl]-piperazin-1-yl}-benzamide] has an IC50 of 7.6 nM.
Compound `O=C(Nc1cncc(F)c1)c1ccccc1N1CCN(C(=O)Cn2ccc3ccncc32)CC1` [N-(5-Fluoro-pyridin-3-yl)-2-[4-(2-pyrrolo[2,3-c]pyridin-1-yl-acetyl)-piperazin-1-yl]-benzamide] has an IC50 of 1.3 nM.
Work on `CN1CCc2nc(NC(=O)c3ccccc3N3CCN(C(=O)CN4Cc5ccccc5C4=O)CC3)sc2C1` [N-(5-Methyl-4,5,6,7-tetrahydro-thiazolo[5,4-c]pyridin-2-yl)-2-{4-[2-(1-oxo-1,3-dihydro-isoindol-2-yl)-acetyl]-piperazin-1-yl}-benzamide] yielded an IC50 of 2.9 nM.
In the case of `Cc1cc(C)n(CC(=O)N2CCN(c3ccccc3C(=O)Nc3cc(C(C)(C)C)n[nH]3)CC2)n1` [N-(5-tert-Butyl-2H-pyrazol-3-yl)-2-{4-[2-(3,5-dimethyl-pyrazol-1-yl)-acetyl]-piperazin-1-yl}-benzamide], the IC50 is reported as 4.8 nM.
Work on `Cc1cc(C)n(CC(=O)N2CCN(c3ccccc3C(=O)Nc3nc(C)c(C(C)(C)C)s3)CC2)n1` [N-(5-tert-Butyl-4-methyl-thiazol-2-yl)-2-{4-[2-(3,5-dimethyl-pyrazol-1-yl)-acetyl]-piperazin-1-yl}-benzamide] yielded an IC50 of 11 nM.
For `Cc1cc(C)n(CC(=O)N2CCN(c3ccccc3C(=O)Nc3nnc(C(C)(C)C)s3)CC2)n1` [N-(5-tert-Butyl-[1,3,4]thiadiazol-2-yl)-2-{4-[2-(3,5-dimethyl-pyrazol-1-yl)-acetyl]-piperazin-1-yl}-benzamide], the IC50 was 9.7 nM.
With `Cc1cc(C)n(CC(=O)N2CCN(c3ccccc3C(=O)Nc3nc4c(s3)COCC4)CC2)n1` [N-(6,7-Dihydro-4H-pyrano[4,3-d]thiazol-2-yl)-2-{4-[2-(3,5-dimethyl-pyrazol-1-yl)-acetyl]-piperazin-1-yl}-benzamide] the IC50 was 8.6 nM.
`CC(=O)Nc1ccc(NC(=O)c2ccccc2N2CCN(C(=O)Cn3nc(C)cc3C)CC2)cn1` [N-(6-Acetylamino-pyridin-3-yl)-2-{4-[2-(3,5-dimethyl-pyrazol-1-yl)-acetyl]-piperazin-1-yl}-benzamide] gave an IC50 of 10.2 nM.
For `Cc1cc(C)n(CC(=O)N2CCN(c3ccccc3C(=O)Nc3ccc(Br)nc3)CC2)n1` [N-(6-Bromo-pyridin-3-yl)-2-{4-[2-(3,5-dimethyl-pyrazol-1-yl)-acetyl]-piperazin-1-yl}-benzamide], the IC50 was 8.5 nM.
For `Cc1cc(C)n(CC(=O)N2CCN(c3ccccc3C(=O)Nc3ccc(Cl)nc3)CC2)n1` [N-(6-Chloro-pyridin-3-yl)-2-{4-[2-(3,5-dimethyl-pyrazol-1-yl)-acetyl]-piperazin-1-yl}-benzamide], the IC50 was 7.2 nM.
Work on `N#Cc1ccc(NC(=O)c2ccccc2N2CCN(C(=O)Cn3ccc4cccnc43)CC2)cn1` [N-(6-Cyano-pyridin-3-yl)-2-[4-(2-pyrrolo[2,3-b]pyridin-1-yl-acetyl)-piperazin-1-yl]-benzamide] yielded an IC50 of 6.3 nM.
`Cc1cc(C)n(CC(=O)N2CCN(c3ccccc3C(=O)Nc3ccc(C#N)nc3)CC2)n1` [N-(6-Cyano-pyridin-3-yl)-2-{4-[2-(3,5-dimethyl-pyrazol-1-yl)-acetyl]-piperazin-1-yl}-benzamide] gave an IC50 of 4.2 nM.
In the case of `COc1ccc(NC(=O)c2ccccc2N2CCN(C(=O)Cn3ccc4cccnc43)CC2)cn1` [N-(6-Methoxy-pyridin-3-yl)-2-[4-(2-pyrrolo[2,3-b]pyridin-1-yl-acetyl)-piperazin-1-yl]-benzamide], the IC50 is reported as 5.7 nM.
In the case of `Cc1ccc(NC(=O)c2ccccc2N2CCN(C(=O)Cn3ccc4cccnc43)CC2)cn1` [N-(6-Methyl-pyridin-3-yl)-2-[4-(2-pyrrolo[2,3-b]pyridin-1-yl-acetyl)-piperazin-1-yl]-benzamide], the IC50 is reported as 6.8 nM.
With `Cc1cc(C)n(CC(=O)N2CCN(c3ccccc3C(=O)Nc3nc4ccccc4s3)CC2)n1` [N-Benzothiazol-2-yl-2-{4-[2-(3,5-dimethyl-pyrazol-1-yl)-acetyl]-piperazin-1-yl}-benzamide] the IC50 was 5.9 nM.
Work on `O=C(Nc1ccccc1)c1ccccc1N1CCN(C(=O)Cn2ccc3cccnc32)CC1` [N-Phenyl-2-[4-(2-pyrrolo[2,3-b]pyridin-1-yl-acetyl)-piperazin-1-yl]-benzamide] yielded an IC50 of 3.4 nM.
`O=C(Nc1cccnc1)c1ccccc1N1CCN(C(=O)Cn2ccc3cccnc32)CC1` [N-Pyridin-3-yl-2-[4-(2-pyrrolo[2,3-b]pyridin-1-yl-acetyl)-piperazin-1-yl]-benzamide] gave an IC50 of 4.6 nM.
Compound `O=C(Nc1ccncc1)c1ccccc1N1CCN(C(=O)Cn2ccc3cccnc32)CC1` [N-Pyridin-4-yl-2-[4-(2-pyrrolo[2,3-b]pyridin-1-yl-acetyl)-piperazin-1-yl]-benzamide] has an IC50 of 4.9 nM.
For `O=C(Nc1ccncc1)c1ccccc1N1CCN(C(=O)Cc2cccc3cccnc23)CC1` [N-Pyridin-4-yl-2-[4-(2-quinolin-8-yl-acetyl)-piperazin-1-yl]-benzamide], the IC50 was 14 nM.
In the case of `O=C(Nc1ccncc1)c1ccccc1N1CCN(C(=O)CN2C(=O)c3ccccc3S2(=O)=O)CC1` [N-Pyridin-4-yl-2-{4-[2-(1,1,3-trioxo-1,3-dihydro-1l6-benzo[d]isothiazol-2-yl)-acetyl]-piperazin-1-yl}-benzamide], the IC50 is reported as 6.6 nM.
`Cc1nn(C)c(C)c1CC(=O)N1CCN(c2ccccc2C(=O)Nc2ccncc2)CC1` [N-Pyridin-4-yl-2-{4-[2-(1,3,5-trimethyl-1H-pyrazol-4-yl)-acetyl]-piperazin-1-yl}-benzamide] gave an IC50 of 19.5 nM.
Compound `Cc1cc(C)n(CC(=O)N2CCN(c3ccccc3C(=O)Nc3cc(CC(C)(C)C)no3)CC2)n1` [N-[3-(2,2-Dimethyl-propyl)-isoxazol-5-yl]-2-{4-[2-(3,5-dimethyl-pyrazol-1-yl)-acetyl]-piperazin-1-yl}-benzamide] has an IC50 of 9.5 nM.
In the case of `O=C(Nc1cc(Cl)cnc1N1CCN(C(=O)Cn2ccc3cccnc32)CC1)c1cccc(C(F)(F)F)c1` [N-{5-Chloro-2-[4-(2-pyrrolo[2,3-b]pyridin-1-yl-acetyl)-piperazin-1-yl]-pyridin-3-yl}-3-trifluoromethyl-benzamide], the IC50 is reported as 8.9 nM.
